Results on 32 molecules are retold here after patent US20090048269A1 (AstraZeneca AB, priority 2007, published 2009).

The experiment has as its target T1, human ALK5 (Homo sapiens, UniProt P36897).
T1 sequence (P36897 162-503): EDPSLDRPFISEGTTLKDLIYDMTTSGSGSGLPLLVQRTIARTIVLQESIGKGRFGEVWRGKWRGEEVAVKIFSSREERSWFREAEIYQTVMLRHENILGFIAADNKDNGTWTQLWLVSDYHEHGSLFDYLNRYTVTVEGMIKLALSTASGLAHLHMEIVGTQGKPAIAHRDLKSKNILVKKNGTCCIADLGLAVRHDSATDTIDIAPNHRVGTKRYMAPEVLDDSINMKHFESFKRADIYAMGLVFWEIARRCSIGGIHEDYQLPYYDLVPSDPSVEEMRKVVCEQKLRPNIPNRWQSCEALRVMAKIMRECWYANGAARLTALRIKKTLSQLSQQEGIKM
In words: ALK5 Enzyme Assay 2 (fluorescence polarisation probe displacement). Also noted: 6His tagged human ALK5 (residues162-503) was grown and purified from insect cells; 6His; made in house; host or cells: insect cells. As to conditions: read-out: EAA2: activity (μM) using Enzyme Assay 2. It counts as binding. The procedure:
The ability of a compound to bind and inhibit ALK5 can be measured by its capacity to displace a probe molecule from recombinant ALK5 in an in vitro assay. Provided the probe molecule is derivatised with a fluorescent probe or is fluorescent itself, the binding affinity can be measured using Fluorescence Polarisation (FP). […] Assay measurements were performed in 50 mM HEPES pH7.4, 10 mM MgCl2, 1 mM DTT, 0.01% CHAPS in a final assay volume of 12 μl. Briefly 6 μl of ALK5 protein, final concentration of 3 μg/mL, was added to each well of a 384 well assay plate containing 12 nL of each concentration of test compound dissolved in DMSO. 6 μL of a solution containing an ALK5 FP probe ((2Z)-3-(6-{4-[2-({4-[(6-chloro[1,3]dioxolo[4,5-b]pyridin-7-yl)amino]-5-(1-methylethoxy)quinazolin-7-yl}oxy)ethyl]piperazin-1-yl}-6-oxohexyl)-2-[(2E,4E)-5-(3-ethyl-1,1-dimethyl-6,8-disulfo-1H-benzo[e]indolium-2-yl)penta-2,4-dien-1-ylidene]-1,1-dimethyl-6-sulfo-2,3-dihydro-1H-benzo[e]indole-8-sulfonate), final concentration 50 nM, and ATP, final concentration 1 μM.
(In general: In fluorescence polarisation assays a small probe gives low polarisation when free and higher when bound to something large.)

Consider `Cc1ccc(Oc2ccnc(Nc3ccc(CO)cc3)c2)c(-c2ccco2)n1` [Example 163, [4-({4-[2-(Furan-2-yl)-6-methylpyridin-3-yl]oxypyridin-2-yl}-amino)phenyl]methanol], for which the IC50 came out at 0.00528 µM.

With `Cc1ccc(Oc2ccnc(Nc3ccc(CO)cc3)c2)c(-c2ccccc2)n1` [Example 152, (4-{[4-(6-Methyl-2-phenylpyridin-3-yl)oxypyridin-2-yl]amino}-phenyl)methanol], the IC50 was determined as 0.00705 µM.

For the molecule `Cc1ccc(Oc2ccnc(Nc3ccc(C(N)=O)cc3)c2)c(-c2ccco2)n1` [Example 162, 4-({4-[2-(Furan-2-yl)-6-methylpyridin-3-yl]oxypyridin-2-yl}-amino)benzamide], the IC50 worked out at 0.0204 µM.

`Cc1cc(Oc2ccnc(Nc3ccc(C(=O)NCCCN)cc3)c2)c(-c2ccccn2)nc1C` [Example 199, N-(3-Aminopropyl)-4-{[4-(5,6-dimethyl-2-pyridin-2-ylpyridin-3-yl)oxypyridin-2-yl]amino}benzamide]: the IC50 was 0.00145 µM.

Regarding `CC(=O)Nc1ccc(Nc2cc(Oc3cc(C)c(C)nc3-c3ccccn3)ccn2)cc1` [Example 86, N-(4-{[4-(5,6-Dimethyl-2-pyridin-2-ylpyridin-3-yl)oxypyridin-2-yl]-amino}phenyl)acetamide], the IC50 is 0.00842 µM.

On to `Cc1ccc(Oc2ccnc(Nc3cccc(C(=O)NCc4ncc[nH]4)c3)c2)c(C)n1` [Example 63, 3-{[4-(2,6-Dimethylpyridin-3-yl)oxypyridin-2-yl]amino}-N-(1H-imidazol-2-ylmethyl)benzamide], for which the IC50 turned out to be 0.00823 µM.

As for `Cc1ccc(Oc2ccnc(Nc3cccc(CO)c3)c2)c(C)n1` [Example 174, (3-{[4-(2,6-Dimethylpyridin-3-yl)oxypyridin-2-yl]amino}phenyl)-methanol], the IC50 stood at 0.0113 µM.

Regarding `CC(=O)N(C)c1ccc(Nc2cc(Oc3ccc(C)nc3C)ccn2)cc1` [Example 122, N-(4-{[4-(2,6-Dimethylpyridin-3-yl)oxypyridin-2-yl]amino}-phenyl)-N-methylacetamide], the IC50 was determined as 0.215 µM.

With `Cc1ccc(Oc2ccnc(Nc3ccc(C(N)=O)cc3)c2)c(-c2ccc(F)cc2)n1` [Example 157, 4-({4-[2-(4-Fluorophenyl)-6-methylpyridin-3-yl]oxypyridin-2-yl}-amino)benzamide], the IC50 is 0.0474 µM.

With `Cc1ccc(Oc2ccnc(Nc3ccc(S(C)(=O)=O)cc3)c2)c(C)n1` [Example 124, 4-(2,6-Dimethylpyridin-3-yl)oxy-N-(4-methylsulfonylphenyl)-pyridin-2-amine], the IC50 stood at 0.077 µM.

Take `Cc1ccc(Oc2ccnc(Nc3ccccc3)c2)c(C(=O)NCc2ccccc2)n1` [Example 96, 3-(2-Anilinopyridin-4-yl)oxy-N-benzyl-6-methylpyridine-2-carboxamide]: the IC50 was determined as 0.292 µM.

Consider `CC(=O)NC1CCN(C(=O)c2cccc(Nc3cc(Oc4ccc(C)nc4C)ccn3)c2)C1` (centres unmarked) [Example 65, N-[1-(3-{[4-(2,6-Dimethylpyridin-3-yl)oxypyridin-2-yl]-amino}benzoyl)pyrrolidin-3-yl]acetamide], for which the IC50 turned out to be 0.0457 µM.

Consider `Cc1ccc(Oc2ccnc(Nc3ccc(C(=O)NCCn4cccn4)cc3)c2)c(C)n1` [Example 140, 4-{[4-(2,6-Dimethylpyridin-3-yl)oxypyridin-2-yl]amino}-N-(2-pyrazol-1-ylethyl)benzamide], for which the IC50 was 0.0208 µM.

`Cc1ccc(Oc2ccnc(Nc3cccc(C(=O)O)c3)c2)c(C)n1` [Example 210, Sodium 3-{[4-(2,6-dimethylpyridin-3-yl)oxypyridin-2-yl]amino}benzoate]: the IC50 stood at 0.0392 µM.

Regarding `COc1ccc(NC(=O)N2CCN(Cc3cccc(Nc4cc(Oc5ccc(C)nc5C)ccn4)c3)CC2)cc1` [Example 179, 4-[(3-{[4-(2,6-Dimethylpyridin-3-yl)oxypyridin-2-yl]-amino}phenyl)methyl]-N-(4-methoxyphenyl)piperazine-1-carboxamide], the IC50 came to 0.0233 µM.

As to `Cc1ccc(Oc2ccnc(Nc3cccc(C#N)c3)c2)c(C)n1` [Example 125, 3-{[4-(2,6-Dimethylpyridin-3-yl)oxypyridin-2-yl]amino}-benzonitrile], the IC50 is 0.192 µM.

For `CNS(=O)(=O)Cc1ccc(Nc2cc(Oc3cc(C)c(C)nc3-c3ccccn3)ccn2)cc1` [Example 80, 1-(4-{[4-(5,6-Dimethyl-2-pyridin-2-ylpyridin-3-yl)oxypyridin-2-yl]-amino}phenyl)-N-methylmethanesulfonamide], the IC50 was determined as 0.0169 µM.

With `Cc1ccc(Oc2ccnc(Nc3ccc(S(=O)(=O)NCCN4CCS(=O)(=O)CC4)cc3)c2)c(C)n1` [Example 132, 4-{[4-(2,6-Dimethylpyridin-3-yl)oxypyridin-2-yl]amino}-N-[2-(1,1-dioxo-1,4-thiazinan-4-yl)ethyl]benzenesulfonamide], the IC50 was found to be 0.142 µM.

Take `COc1cc(Nc2cc(Oc3ccc(C)nc3-c3cncnc3)ccn2)cc(OC)c1OC` [Example 173, 4-(6-Methyl-2-pyrimidin-5-ylpyridin-3-yl)oxy-N-(3,4,5-trimethoxyphenyl)pyridin-2-amine]: the IC50 is 0.0966 µM.

Consider `Cc1ccc(Oc2ccnc(Nc3cccc(CN4CCN(C(=O)C5CC5)CC4)c3)c2)c(C)n1` [Example 183, N-(3-{[4-(cyclopropylcarbonyl)piperazin-1-yl]methyl}phenyl)-4-[(2,6-dimethylpyridin-3-yl)oxy]pyridin-2-amine], for which the IC50 was determined as 0.0127 µM.

`COc1cc(Nc2cc(Oc3ccc(C)nc3N3CCCC3)ccn2)cc(OC)c1OC` [Example 164, 4-(6-Methyl-2-(pyrrolidin-1-yl)pyridin-3-yloxy)-N-(3,4,5-trimethoxyphenyl)pyridin-2-amine]: the IC50 turned out to be 0.0275 µM.

In the case of `Cc1ccc(Oc2ccnc(Nc3cccc(CN4CCN(C(=O)OC(C)(C)C)CC4)c3)c2)c(C)n1` [Example 207, tert-Butyl 4-[(3-{[4-(2,6-dimethylpyridin-3-yl)oxypyridin-2-yl]-amino}phenyl)methyl]piperazine-1-carboxylate], the IC50 amounted to 0.0384 µM.

Take `Cc1ccc(Oc2ccnc(Nc3ccc(S(=O)(=O)N4CCCCC4)cc3)c2)c(C)n1` [Example 115, 4-(2,6-Dimethylpyridin-3-yl)oxy-N-(4-piperidin-1-ylsulfonyl-phenyl)pyridin-2-amine]: the IC50 came out at 5.41 µM.

`Cc1cc(Oc2ccnc(Nc3cccc(C(=O)NC4CC4)c3)c2)c(-c2ccccn2)nc1C` [Example 72, N-Cyclopropyl-3-{[4-(5,6-dimethyl-2-pyridin-2-ylpyridin-3-yl)-oxypyridin-2-yl]amino}benzamide]: the IC50 turned out to be 0.0108 µM.

For `COCCNS(=O)(=O)c1ccc(Nc2cc(Oc3ccc(C)nc3C)ccn2)cc1` [Example 110, 4-{[4-(2,6-Dimethylpyridin-3-yl)oxypyridin-2-yl]amino}-N-(2-methoxyethyl)benzenesulfonamide], the IC50 is 0.203 µM.

Take `Cc1ccc(Oc2ccnc(Nc3cccc(C(=O)N4CCN(CC(N)=O)CC4)c3)c2)c(C)n1` [Example 69, 2-[4-(3-{[4-(2,6-Dimethylpyridin-3-yl)oxypyridin-2-yl]amino}-benzoyl)piperazin-1-yl]acetamide]: the IC50 amounted to 0.0827 µM.

For `Cc1cc(Oc2ccnc(Nc3ccc(CC#N)cc3)c2)c(-c2ccccn2)nc1C` [Example 74, 2-(4-{[4-(5,6-Dimethyl-2-pyridin-2-ylpyridin-3-yl)oxypyridin-2-yl]-amino}phenyl)acetonitrile], the IC50 stood at 0.00488 µM.

As to `Cc1ccc(Oc2ccnc(Nc3ccc(S(=O)(=O)NCCn4cccn4)cc3)c2)c(C)n1` [Example 136, 4-{[4-(2,6-Dimethylpyridin-3-yl)oxypyridin-2-yl]amino}-N-(2-pyrazol-1-ylethyl)benzenesulfonamide], the IC50 was 0.101 µM.

`Cc1ccc(Oc2ccnc(Nc3ccc(CO)cc3)c2)c(-c2ccc(F)cc2)n1` [Example 158, [4-({4-[2-(4-Fluorophenyl)-6-methylpyridin-3-yl]oxypyridin-2-yl}-amino)phenyl]methanol]: the IC50 was found to be 0.0315 µM.

Take `CCCCCNS(=O)(=O)c1ccc(Nc2cc(Oc3ccc(C)nc3C)ccn2)cc1` [Example 114, 4-{[4-(2,6-Dimethylpyridin-3-yl)oxypyridin-2-yl]amino}-N-pentylbenzenesulfonamide]: the IC50 amounted to 3.01 µM.

For `Cc1ccc(Oc2ccnc(Nc3ccccn3)c2)c(-c2ccccc2)n1` [Example 150, 4-(6-Methyl-2-phenylpyridin-3-yl)oxy-N-pyridin-2-ylpyridin-2-amine], the IC50 was 0.0047 µM.

Turning to `COCCCNS(=O)(=O)c1ccc(Nc2cc(Oc3ccc(C)nc3C)ccn2)cc1` [Example 109, 4-{[4-(2,6-Dimethylpyridin-3-yl)oxypyridin-2-yl]amino}-N-(3-methoxypropyl)benzenesulfonamide], the IC50 was determined as 0.269 µM.
